Measured values as given in publication PMC11876601 (Molecular Systems Biology, 2025).
Read-outs that look alike come from different tables or passages of the source.

Columns and labels:
Assay in all cases: cells
[1] = test system: PSN-1; set-up: ATPlite luminescence viability of PDAC cell lines, 11-dose single-agent curves, 4-parameter fit; conditions: Homo sapiens, PSN1, 72 h, read-out: EC50 [nM]
In short: (§1)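 Drug-combination screening used cells plated at 1000 to 5000 per well one day before treatment. Final DMSO was 0.2%. Each plate held untreated negative-control wells and 5 µM staurosporine positive-control wells.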

[2] = test system: HPDE; set-up: ATPlite luminescence viability of PDAC cell lines, 11-dose single-agent curves, 4-parameter fit; conditions: HPDE, 72 h, read-out: EC50 [nM]
In short: as §1

[3] = test system: Suit2-07; set-up: ATPlite luminescence viability of PDAC cell lines, 11-dose single-agent curves, 4-parameter fit; conditions: 72 h, read-out: EC50 [nM]
In short: as §1

[4] = test system: BxPC-3; set-up: ATPlite luminescence viability of PDAC cell lines, 11-dose single-agent curves, 4-parameter fit; conditions: Homo sapiens, BXPC-3, 72 h, read-out: EC50 [nM]
In short: as §1

[5] = test system: PaTu-8988-T; set-up: ATPlite luminescence viability of PDAC cell lines, 11-dose single-agent curves, 4-parameter fit; conditions: Homo sapiens, PaTu 8988t, 72 h, read-out: EC50 [nM]
In short: as §1

[6] = test system: FAMPAC; set-up: ATPlite luminescence viability of PDAC cell lines, 11-dose single-agent curves, 4-parameter fit; conditions: 72 h, read-out: EC50 [nM]
In short: as §1

[7] = test system: AsPC-1; set-up: ATPlite luminescence viability of PDAC cell lines, 11-dose single-agent curves, 4-parameter fit; conditions: Homo sapiens, ASPC1, 72 h, read-out: EC50 [nM]
In short: as §1

[8] = test system: MiaPaCa-2; set-up: ATPlite luminescence viability of PDAC cell lines, 11-dose single-agent curves, 4-parameter fit; conditions: Homo sapiens, MIA PaCa-2, 72 h, read-out: EC50 [nM]
In short: as §1

[9] = test system: Colo-357; set-up: ATPlite luminescence viability of PDAC cell lines, 11-dose single-agent curves, 4-parameter fit; conditions: Homo sapiens, COLO357, 72 h, read-out: EC50 [nM]
In short: as §1

[10] = test system: PANC-1; set-up: ATPlite luminescence viability of PDAC cell lines, 11-dose single-agent curves, 4-parameter fit; conditions: Homo sapiens, PANC-1, 72 h, read-out: EC50 [nM]
In short: as §1

[11] = test system: Dan-G; set-up: ATPlite luminescence viability of PDAC cell lines, 11-dose single-agent curves, 4-parameter fit; conditions: 72 h, read-out: EC50 [nM]
In short: as §1

[12] = test system: HuP-T4; set-up: Viability of PDAC cell lines, ATPlite luminescence, 11-dose single-agent curve fit; conditions: Homo sapiens, HuP-T4, 72 h, read-out: EC50 [nM]
In short: (§2)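 screening used cells plated at 1000 to 5000 per well one day before treatment. Final DMSO was 0.2%. Each plate held untreated negative-control wells and 5 µM staurosporine positive-control wells.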

[13] = test system: Capan-1; set-up: Viability of PDAC cell lines, ATPlite luminescence, 11-dose single-agent curve fit; conditions: Homo sapiens, CAPAN-1, 72 h, read-out: EC50 [nM]
In short: as §2

[14] = test system: Capan-1; set-up: ATPlite luminescence viability of PDAC cell lines, 11-dose single-agent curves, 4-parameter fit; conditions: Homo sapiens, CAPAN-1, 72 h, read-out: EC50 [nM]
In short: as §1

[15] = test system: PSN-1; set-up: Viability of PDAC cell lines, ATPlite luminescence, 11-dose single-agent curve fit; conditions: Homo sapiens, PSN1, 72 h, read-out: EC50 [nM]
In short: as §2

[16] = test system: PaTu-8988-T; set-up: Viability of PDAC cell lines, ATPlite luminescence, 11-dose single-agent curve fit; conditions: Homo sapiens, PaTu 8988t, 72 h, read-out: EC50 [nM]
In short: as §2

[17] = test system: AsPC-1; set-up: Viability of PDAC cell lines, ATPlite luminescence, 11-dose single-agent curve fit; conditions: Homo sapiens, ASPC1, 72 h, read-out: EC50 [nM]
In short: as §2

[18] = test system: Colo-357; set-up: Viability of PDAC cell lines, ATPlite luminescence, 11-dose single-agent curve fit; conditions: Homo sapiens, COLO357, 72 h, read-out: EC50 [nM]
In short: as §2

[19] = test system: PANC-1; set-up: Viability of PDAC cell lines, ATPlite luminescence, 11-dose single-agent curve fit; conditions: Homo sapiens, PANC-1, 72 h, read-out: EC50 [nM]
In short: as §2

[20] = test system: HPDE; set-up: Viability of PDAC cell lines, ATPlite luminescence, 11-dose single-agent curve fit; conditions: HPDE, 72 h, read-out: EC50 [nM]
In short: as §2

[21] = test system: Suit2-07; set-up: Viability of PDAC cell lines, ATPlite luminescence, 11-dose single-agent curve fit; conditions: 72 h, read-out: EC50 [nM]
In short: as §2

[22] = test system: BxPC-3; set-up: Viability of PDAC cell lines, ATPlite luminescence, 11-dose single-agent curve fit; conditions: Homo sapiens, BXPC-3, 72 h, read-out: EC50 [nM]
In short: as §2

[23] = test system: FAMPAC; set-up: Viability of PDAC cell lines, ATPlite luminescence, 11-dose single-agent curve fit; conditions: 72 h, read-out: EC50 [nM]
In short: as §2

[24] = test system: MiaPaCa-2; set-up: Viability of PDAC cell lines, ATPlite luminescence, 11-dose single-agent curve fit; conditions: Homo sapiens, MIA PaCa-2, 72 h, read-out: EC50 [nM]
In short: as §2

[25] = test system: Dan-G; set-up: Viability of PDAC cell lines, ATPlite luminescence, 11-dose single-agent curve fit; conditions: 72 h, read-out: EC50 [nM]
In short: as §2

| SMILES | EC50 [4] [nM] | EC50 [7] [nM] | EC50 [8] [nM] | EC50 [9] [nM] | EC50 [10] [nM] | EC50 [17] [nM] | EC50 [19] [nM] | EC50 [1] [nM] | EC50 [2] [nM] | EC50 [3] [nM] | EC50 [5] [nM] | EC50 [6] [nM] | EC50 [11] [nM] | EC50 [12] [nM] | EC50 [14] [nM] | EC50 [16] [nM] | EC50 [20] [nM] | other results |
| --- | --- | --- | --- | --- | --- | --- | --- | --- | --- | --- | --- | --- | --- | --- | --- | --- | --- | --- |
| CN1CCN(CCOc2cc(OC3CCOCC3)c3c(Nc4c(Cl)ccc5c4OCO5)ncnc3c2)CC1 [Saracatinib] | 863 | – | 51.6 | – | – | 4140 | 142 | – | 1430 | 1340 | – | 4910 | 1160 | > 10000 | 2210 | 244 | – | EC50 [15]: 4260 nM; EC50 [18]: 869 nM |
| O=C(Nc1ccc(OC(F)(F)Cl)cc1)c1cnc(N2CC[C@@H](O)C2)c(-c2cc[nH]n2)c1 [Asciminib] | – | – | – | > 10000 | – | 1470 | 4520 | – | – | – | – | – | – | 3860 | 3820 | 1350 | 4830 | EC50 [15]: 1730 nM; EC50 [21]: 3.54 nM; EC50 [22]: 794 nM; EC50 [23]: > 10000 nM; EC50 [24]: 2770 nM; EC50 [25]: 7610 nM |
| COc1cc2nccc(Oc3ccc(NC(=O)Nc4cc(C)on4)c(Cl)c3)c2cc1OC [Tivozanib] | > 10000 | – | > 10000 | 6590 | – | 6600 | > 10000 | 5040 | – | – | > 10000 | > 10000 | > 10000 | 4120 | 9830 | – | > 10000 | EC50 [21]: > 10000 nM |
| CCCCCCCCCCCCCCCCCCOP(=O)([O-])OC1CC[N+](C)(C)CC1 [Perifosine] | – | – | 2990 | > 10000 | 2590 | > 10000 | – | 2340 | 1280 | 2140 | – | 3030 | – | 0.04 | – | 9320 | – | EC50 [22]: 1410 nM; EC50 [13]: > 10000 nM; EC50 [25]: > 10000 nM |
| COc1cc(OC)c(/C=C/S(=O)(=O)Cc2ccc(OC)c(NCC(=O)O)c2)c(OC)c1 [Rigosertib] | 63.2 | 863 | 324 | 256 | 313 | – | – | 86.5 | – | 2170 | 607 | 28.2 | 66 | 809 | 178 | – | 48.2 | – |

Second part, led by results:

| EC50 [4] [nM] | EC50 [7] [nM] | EC50 [8] [nM] | EC50 [9] [nM] | EC50 [10] [nM] | EC50 [17] [nM] | EC50 [19] [nM] | SMILES | EC50 [1] [nM] | EC50 [2] [nM] | EC50 [3] [nM] | EC50 [5] [nM] | EC50 [6] [nM] | EC50 [11] [nM] | EC50 [12] [nM] | EC50 [14] [nM] | EC50 [16] [nM] | EC50 [20] [nM] | other results |
| --- | --- | --- | --- | --- | --- | --- | --- | --- | --- | --- | --- | --- | --- | --- | --- | --- | --- | --- |
| > 10000 | 7880 | 840 | 3820 | > 10000 | – | – | C[C@@H](Oc1cc(-c2cnn(C3CCNCC3)c2)cnc1N)c1c(Cl)ccc(F)c1Cl [Crizotinib] | 10200 | 8110 | 2260 | > 10000 | 5990 | 2500 | 2760 | – | – | – | EC50 [13]: 1780 nM |
| – | 346 | 313 | 536 | 389 | – | – | O=C1NC(=O)[C@@H](c2cn3c4c(cccc24)CCC3)[C@@H]1c1c[nH]c2ccccc12 [Tivantinib] | 215 | – | 191 | 347 | 317 | 412 | > 10000 | 603 | – | 143 | – |
| 10300 | > 10000 | 7010 | 11.5 | 3.11 | – | – | CN1CCC(COc2cnc(-c3cccc(Cn4nc(-c5cccc(C#N)c5)ccc4=O)c3)nc2)CC1 [Tepotinib] | 4160 | – | 7810 | 6390 | > 10000 | 8.91 | 268 | 23.4 | – | 7650 | – |
| 10200 | – | > 10000 | – | – | > 10000 | 7780 | CNC(=O)c1cc(Oc2ccc(NC(=O)Nc3ccc(Cl)c(C(F)(F)F)c3)cc2)ccn1 [Sorafenib] | 3820 | 7960 | 9770 | > 10000 | > 10000 | 7810 | 10200 | 8320 | – | – | EC50 [18]: 4370 nM |
